Common to all, as to assay type: cell-based
The subject of one assay is Strept. agalactiae 1020. As to the kind of experiment: minimum inhibitory concentration (MIC), Strept. agalactiae 1020. The following applies: Streptococcus agalactiae.
For assay [1], the system named is Staph epidermidis ap-al-l. Kind of assay: minimum inhibitory concentration (MIC), Staph epidermidis.
The subject of another assay is Staph. aureus MS353. As to the kind of experiment: minimum inhibitory concentration (MIC), Staph. aureus MS353. The following applies: Staphylococcus aureus.
The next assay deals with Staph. aureus ATCC6538P. Kind of assay: minimum inhibitory concentration (MIC), Staph. aureus ATCC6538P. The following applies: Staphylococcus aureus.
In the next assay the test system is Staph. aureus MS353C36. Kind of assay: minimum inhibitory concentration (MIC), Staph. aureus MS353C36*. The conditions noted are these: Staphylococcus aureus, macrolide-antibiotics resistant. An excerpt: (§1) In Table 1, the abbreviations have the following meanings:
(§2) The test organisms were macrolide-antibiotics resistant A-group stains (clinical isolates of strains resistant to erythromycin, olenadomycin and 16-membered macrolide antibiotics).

Another assay concerns Strept. faecalis 1501. Kind of assay: minimum inhibitory concentration (MIC), Strept. faecalis 1501. The following applies: Enterococcus faecalis.
The subject of the next assay is Strept. pyogenes N.Y.5. Kind of assay: minimum inhibitory concentration (MIC), Strept. pyogenes N.Y.5. The following applies: Streptococcus pyogenes. An excerpt: In Table 1, the abbreviations have the following meanings: […]
A further assay deals with Strept. pyogenes 1022. As to the kind of experiment: minimum inhibitory concentration (MIC), Strept. pyogenes 1022*. The following applies: Streptococcus pyogenes, macrolide-antibiotics resistant.
From the text: as §1, §2

In the next assay the test system is Proteus vulgaris OX19. Kind of assay: minimum inhibitory concentration (MIC), Proteus vulgaris OX19.
The test system of a further assay is E. coli NIHJ-JC2. As to the kind of experiment: minimum inhibitory concentration (MIC), E. coli NIHJ-JC2. The following applies: Escherichia coli, NIHJJC2.
In assay [2] the test system is Kleb. pneumoniae ATCC10031. As to the kind of experiment: minimum inhibitory concentration (MIC), Kleb. pneumoniae ATCC10031. The conditions noted are these: Klebsiella pneumoniae.
The next assay has as its system Serratia marcescens. Kind of assay: minimum inhibitory concentration (MIC), Serratia marcescens.
[3] abbreviates: Staph epidermidis ap-al-l, read-out: MIC.

≈ marks a conversion by molar mass, not a printed value. Like-named read-outs stand apart in the source and are kept apart here.

The term MIC denotes the smallest concentration in the dilution series that meets the test's criterion for growth inhibition.

Regarding `CCC1OC(=O)CC(O)C(C)C(OC2OC(C)CC(N(C)C)C2OC(C)=O)C(CC=O)CC(C)C(=O)C=CC(C)=CC1CO` (stereo not drawn) [D, 2'-O-acetyl-4'-deoxy-O-mycaminosyltylonolide], the MIC against Strept. agalactiae 1020 is at most 0.05 µg/mL; in assay [1] (setting [3]), at most 0.05 µg/mL; against Staph. aureus MS353 it was 0.2 µg/mL (≈ 0.321 µM); against Staph. aureus ATCC6538P it was 0.2 µg/mL (≈ 0.321 µM); against Staph. aureus MS353C36 it was 0.2 µg/mL (≈ 0.321 µM); against Strept. faecalis 1501, 0.2 µg/mL (≈ 0.321 µM). In addition, the MIC with Strept. pyogenes N.Y.5 was at most 0.05 µg/mL; against Strept. pyogenes 1022, above 100 µg/mL.
Regarding `CCC1CC=C(C)C=CC(=O)C(C)CC(CC=O)C(OC2OC(C)CC(N(C)C)C2O)C(C)C(O)CC(=O)O1` (stereo not drawn) [F, 14-de(hydroxymethyl)-4'-deoxy-O-mycaminosyltylonolide], the MIC was at most 0.05 µg/mL against Strept. agalactiae 1020; at most 0.05 µg/mL in [1] (setting [3]); 0.1 µg/mL (≈ 0.181 µM) with Staph. aureus MS353; 0.1 µg/mL (≈ 0.181 µM) in the assay on Staph. aureus ATCC6538P; 0.2 µg/mL (≈ 0.363 µM) in the assay with Staph. aureus MS353C36; 0.2 µg/mL (≈ 0.363 µM) in the assay on Strept. faecalis 1501. The figures for the MIC with Strept. pyogenes N.Y.5 and against Strept. pyogenes 1022 were at most 0.05 µg/mL and above 100 µg/mL, respectively.
As to `CCC1OC(=O)CC(O)C(C)C(OC2OC(C)C(OC(C)=O)C(N(C)C)C2OC(C)=O)C(CC(OC)OC)CC(C)C(=O)C=CC(C)=CC1CO` (stereo not drawn) [A, 2',4'-di-O-acetyl-O-mycaminosyltylonolide dimethylacetal], the MIC was at most 0.05 µg/mL in the assay on Strept. agalactiae 1020; 0.1 µg/mL (≈ 0.137 µM) in assay [1] (setting [3]); 0.2 µg/mL (≈ 0.275 µM) against Staph. aureus MS353; 0.2 µg/mL (≈ 0.275 µM) against Staph. aureus ATCC6538P; 6.3 µg/mL (≈ 8.66 µM) in the assay with Proteus vulgaris OX19; 25 µg/mL (≈ 34.3 µM) in the assay on E. coli NIHJ-JC2. The MIC was 0.2 µg/mL (≈ 0.275 µM) in the assay with Strept. faecalis 1501; 1.6 µg/mL (≈ 2.2 µM) in [2]; at most 0.05 µg/mL against Strept. pyogenes N.Y.5; above 100 µg/mL against Strept. pyogenes 1022; 12.5 µg/mL (≈ 17.2 µM) in the assay on Serratia marcescens.
For `CC[C@H]1OC(=O)[C@H](C)[C@@H](O[C@H]2C[C@@](C)(OC)[C@@H](O)[C@H](C)O2)[C@H](C)[C@@H](O[C@@H]2O[C@H](C)C[C@H](N(C)C)[C@H]2O)[C@](C)(O)C[C@@H](C)C(=O)[C@H](C)[C@@H](O)[C@]1(C)O` [EM, erythromycin, reference compound], the MIC is at most 0.05 µg/mL in the assay with Strept. agalactiae 1020; 0.1 µg/mL (≈ 0.136 µM) in assay [1]; 0.2 µg/mL (≈ 0.273 µM) against Staph. aureus MS353; 0.2 µg/mL (≈ 0.273 µM) against Staph. aureus ATCC6538P; above 100 µg/mL in the assay on Staph. aureus MS353C36; at most 0.05 µg/mL in the assay with Strept. pyogenes N.Y.5. The MIC against Strept. pyogenes 1022 was above 100 µg/mL.
With `CC[C@H]1OC(=O)C[C@@H](O)[C@H](C)[C@@H](O[C@@H]2O[C@H](C)[C@@H](O[C@H]3C[C@@](C)(O)[C@@H](O)[C@H](C)O3)[C@H](N(C)C)[C@H]2O)[C@@H](CC=O)C[C@@H](C)C(=O)/C=C/C(C)=C/[C@@H]1CO[C@@H]1O[C@H](C)[C@@H](O)[C@@H](OC)[C@H]1OC` [TS, tylosin, reference compound], the MIC in the assay on Strept. agalactiae 1020 was 0.4 µg/mL (≈ 0.437 µM); in [1], 0.4 µg/mL (≈ 0.437 µM); in the assay on Staph. aureus MS353C36 it was above 100 µg/mL; with E. coli NIHJ-JC2, above 100 µg/mL; in the assay with Strept. faecalis 1501, 1.6 µg/mL (≈ 1.75 µM); in the assay on Strept. pyogenes 1022, above 100 µg/mL.
With `CCOC(=O)C1C=C(C)C=CC(=O)C(C)CC(CC=O)C(OC2OC(C)C(O)C(N(C)C)C2O)C(C)C(O)CC(=O)OC1CC` (stereo not drawn) [H, 14-ethyloxycarbonyl-14-de(hydroxymethyl)-O-mycaminosyltylonolide], the MIC was at most 0.05 µg/mL in the assay on Strept. agalactiae 1020; 0.1 µg/mL (≈ 0.156 µM) in assay [1] (setting [3]); 0.2 µg/mL (≈ 0.313 µM) against Staph. aureus MS353; 0.2 µg/mL (≈ 0.313 µM) in the assay with Staph. aureus ATCC6538P; 0.4 µg/mL (≈ 0.625 µM) in the assay on Staph. aureus MS353C36; at most 0.05 µg/mL with Strept. faecalis 1501. The results for the MIC in the assay with Strept. pyogenes N.Y.5 and with Strept. pyogenes 1022 were at most 0.05 µg/mL and above 100 µg/mL, respectively.
For `CCC1OC(=O)CC(O)C(C)C(OC2OC(C)CC(N(C)C)C2OC(C)=O)C(CC(OC)OC)CC(C)C(=O)C=CC(C)=CC1CO` (stereo not drawn) [E, 2'-O-acetyl-4'-deoxy-O-mycaminosyltylonolide dimethylacetal], the MIC was at most 0.05 µg/mL against Strept. agalactiae 1020; at most 0.05 µg/mL in assay [1] (setting [3]); 0.1 µg/mL (≈ 0.149 µM) against Staph. aureus MS353; 0.1 µg/mL (≈ 0.149 µM) against Staph. aureus ATCC6538P; 0.1 µg/mL (≈ 0.149 µM) in the assay with Staph. aureus MS353C36; at most 0.05 µg/mL in the assay with Strept. faecalis 1501. In addition, the MIC in the assay with Strept. pyogenes N.Y.5 was at most 0.05 µg/mL; against Strept. pyogenes 1022, above 100 µg/mL.
Consider `CCC1OC(=O)CC(O)C(C)C(OC2OC(C)C(O)C(N(C)C)C2O)C(CC=O)CC(C)C(=O)C=CC(C)=CC1C(=O)OC(C)C` (stereo not drawn) [G, 14-isopropyloxycarbonyl-14-de(hydroxymethyl)-O-mycaminosyltylonolide], for which the MIC is at most 0.05 µg/mL against Strept. agalactiae 1020; 0.2 µg/mL (≈ 0.306 µM) in assay [1] (setting [3]); 0.4 µg/mL (≈ 0.612 µM) against Staph. aureus MS353; 0.4 µg/mL (≈ 0.612 µM) against Staph. aureus ATCC6538P; 0.8 µg/mL (≈ 1.22 µM) in the assay on Staph. aureus MS353C36; 0.2 µg/mL (≈ 0.306 µM) against Strept. faecalis 1501. For the same compound, the MIC against Strept. pyogenes N.Y.5 was at most 0.05 µg/mL; in the assay on Strept. pyogenes 1022 it was above 100 µg/mL.
As for `CCC1CC=C(C)C=CC(=O)C(C)CC(CC=O)C(OC2OC(C)C(O)C(N(C)C)C2O)C(C)C(O)CC(=O)O1` (stereo not drawn) [C, 14-de(hydroxymethyl)-O-mycaminosyltylonolide], the MIC was at most 0.05 µg/mL against Strept. agalactiae 1020; at most 0.05 µg/mL in [1] (setting [3]); at most 0.05 µg/mL against Staph. aureus MS353; at most 0.05 µg/mL against Staph. aureus ATCC6538P; at most 0.05 µg/mL with Staph. aureus MS353C36; 0.1 µg/mL (≈ 0.176 µM) against Strept. faecalis 1501. For the same compound, the MIC in the assay on Strept. pyogenes N.Y.5 was at most 0.05 µg/mL; with Strept. pyogenes 1022 it was above 100 µg/mL.

The values above are taken from US4579940A, “14-de(hydroxymethyl)-mycaminosyltylonolide derivatives” (Toyo Jozo Kabushiki Kaisha, priority 1983, dated 1986).
